According to US20140371237A1, “p19Arf, HMGA2 and MDM2 For Use in the Diagnosis and Treatment of Aberrant Cell Growth” (University of Bremen, priority 2010, published 2014):

Tests used:
Format in all cases: cell-based, human
leiomyoma cells [1] = assay: Treatment of leiomyoma cells with RITA, qRT-PCR; conditions: cells of fibroids, 10 μM RITA, 72 h
Protocol: For treatment with RITA (Biomol, Hamburg, Germany) cells were plated in Leighton-tubes at a density of 200,000 on 10 mm×50 mm cover slips 24 h before incubation with RITA. Cells were treated with 1 μM and 10 μM RITA for 72 h. As controls cells were cultured in medium 199 supplemented with 20% FCS without RITA for 72 h. Relative quantification of transcription levels was carried out by real-time PCR analyses using the Applied Biosystems 7300 real-time PCR system (Applied Biosystems, Darmstadt, Germany). Commercially available gene expression assays (Applied Biosystems, Darmstadt, Germany) were used for quantification of mRNA of human BAX (Hs00180269_m1), p21 (Hs99999142), β-Gal (Hs01035162) and Ki67 (Hs00606991_m1). HPRT served as endogenous control. All qRT-PCR experiments were done in triplicate.

[2] = system: explants of fibroids and matching myometrium; assay: Treatment of explants of fibroids and matching myometrium with RITA, qRT-PCR; conditions: explants in short term culture, RITA 10 μM, 72 h
Protocol: For the experiments explants from a leiomyoma with a clonal complex chromosomal rearrangement involving chromosome 10 along with matching myometrium were taken during surgery and immediately transferred into sterile Hank's solution. For treatment with RITA (Biomol, Hamburg, Germany) tissue samples were minced into small pieces of approximately 0.5 cm diameter and incubated in medium 199 supplemented with 20% FCS and RITA (10 μM) for 72 h. As controls tissue explants were incubated in medium 199 supplemented with 20% FCS without RITA for 72 h. Relative quantification of transcription levels was carried out by real-time PCR analyses using the Applied Biosystems 7300 real-time PCR system (Applied Biosystems, Darmstadt, Germany). Commercially available gene expression assays (Applied Biosystems, Darmstadt, Germany) were used for quantification of mRNA of human BAX (Hs00180269_m1), p21 (Hs99999142), β-Gal (Hs01035162) and Ki67 (Hs00606991_m1). HPRT served as endogenous control. All qRT-PCR experiments were done in triplicate.

leiomyoma cells [3] = assay: Treatment of leiomyoma cells with Tenovin-1, qRT-PCR of p21 and BAX
Protocol: For treatment with Tenovin-1 (Biomol, Hamburg, Germany) cells were plated in Leighton-tubes at a density of 200,000 on 10 mm×50 mm cover slips 24 h before incubation with Tenovin-1. Cells were treated with 3 μM and 10 μM Tenovin-1 for 24 and for 72 h, respectively. As controls cells were cultured in medium 199 supplemented with 20% FCS without Tenovin-1 for 24 and for 72 h, respectively.

OCc1ccc(-c2ccc(-c3ccc(CO)s3)o2)s1 [RITA, 2,5-bis-(5-Hydroxymethyl-2-thienyl)-furan]
expression of BAX (leiomyoma cells [1]): significant increase
expression of Ki-67 (leiomyoma cells [1]): decrease
expression of p21 (leiomyoma cells [1]): significant increase
expression of β-galactosidase (leiomyoma cells [1]): significant increase
expression of BAX [2]: significant increase
expression of p21 [2]: significant increase

CC(=O)Nc1ccc(NC(=S)NC(=O)c2ccc(C(C)(C)C)cc2)cc1 [Tenovin-1]
expression of p21 (leiomyoma cells [3]; 3 μM and 10 μM, 24 h and 72 h, p<0.01 with both concentrations): significant increase
expression of BAX (leiomyoma cells [3]; significant at 24 h with 3 μM and 10 μM (p<0.001) and 72 h with 10 μM (p<0.01)): significant increase
